“And” between values parts separate entries of the source, which are not always exact repeats. Equal values may be shown once. Inconclusive results and toxic doses are left out. Square brackets hold non-standard residues; d marks the D form. Peptide text beside a SMILES is read from it. ξ: configuration not given here. ξR = N=C(N)NCCCC(N)C(=O)O
Tested on: P388 leukemia ip, CD2F1 mice, survival T/C
Assay: NCI In Vivo Anticancer Drug Screen. Data for tumor model P388 Leukemia (intraperitoneal) in CD2F1 (CDF1) mice
Conditions: endpoint: median survival time, higher = longer survival
How it was run: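 Mice carrying the transplanted tumor received test compound or vehicle. Survival was recorded in each group, and the value is the treated-group measurement divided by that of the vehicle-treated control group.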

[1] = dose: 50.0 mg/kg/injection, schedule: Q01DX009 (ip), vehicle: saline with Tween-80
[2] = dose: 200.0 mg/kg/injection, schedule: Q01DX009 (ip), vehicle: saline with Tween-80
[3] = dose: 100.0 mg/kg/injection, schedule: Q01DX009 (ip), vehicle: saline with Tween-80

CC(=O)OC1CCC2(C)C(=CCC3C2CCC2(C)C3CC3ON=C(C)C32)C1 (stereo not given)
T/C (dose: 12.5 mg/kg/injection, schedule: Q01DX005 (ip), vehicle: Klucel (hydroxypropylcellulose) (HPC)): 101 % of control | T/C (dose: 25.0 mg/kg/injection, schedule: Q01DX005 (ip), vehicle: Klucel (hydroxypropylcellulose) (HPC)): 99 % of control | T/C (dose: 50.0 mg/kg/injection, schedule: Q01DX005 (ip), vehicle: Klucel (hydroxypropylcellulose) (HPC)): 98 % of control | T/C (dose: 100.0 mg/kg/injection, schedule: Q01DX005 (ip), vehicle: Klucel (hydroxypropylcellulose) (HPC)): 86 % of control | T/C (dose: 200.0 mg/kg/injection, schedule: Q01DX005 (ip), vehicle: Klucel (hydroxypropylcellulose) (HPC)): 86 % of control

COC(=O)C1=C(C(=O)OC)C23C(=O)c4ccc(OC)c(OC)c4C1N2CCc1cc2c(cc13)OCO2 (stereo not given)
T/C (dose: 50.0 mg/kg/injection, schedule: Q04DX002 (ip), vehicle: saline with Tween-80): 94 % of control | T/C (dose: 100.0 mg/kg/injection, schedule: Q04DX002 (ip), vehicle: saline with Tween-80): 102 % of control | T/C (dose: 200.0 mg/kg/injection, schedule: Q04DX002 (ip), vehicle: saline with Tween-80): 100 % of control

Nc1nc(N)c2cc(Sc3ccc4ccccc4c3)ccc2n1
T/C [1]: 119 % of control | T/C [2]: 119 % of control

CO/C=C1\CC(=O)N(c2cccc([N+](=O)[O-])c2)C1=O
T/C (dose: 25.0 mg/kg/injection, schedule: Q04DX003 (ip), vehicle: saline): 97 % of control | T/C (dose: 50.0 mg/kg/injection, schedule: Q04DX003 (ip), vehicle: saline): 96 % of control | T/C (dose: 100.0 mg/kg/injection, schedule: Q04DX003 (ip), vehicle: saline): 94 % of control and 96 % of control | T/C (dose: 200.0 mg/kg/injection, schedule: Q04DX003 (ip), vehicle: saline): 90 % of control | T/C (dose: 400.0 mg/kg/injection, schedule: Q04DX003 (ip), vehicle: saline): 97 % of control

CN1CCS(=O)(=O)C2CCCCC2C1=O (stereo not given)
T/C [1]: 96 % of control | T/C [3]: 104 % of control | T/C [2]: 96 % of control

CCNCc1nc2sc3c(c2c(=O)[nH]1)CCCC3
T/C [1]: 105 % of control | T/C [3]: 94 % of control | T/C [2]: 99 % of control

NS(=O)(=O)c1ccc(Nc2c3ccccc3nc3c([N+](=O)[O-])cccc23)cc1
T/C (dose: 15.0 mg/kg/injection, schedule: Q01DX005 (ip), vehicle: saline with Tween-80): 97 % of control | T/C (dose: 30.0 mg/kg/injection, schedule: Q01DX005 (ip), vehicle: saline with Tween-80): 90 % of control | T/C (dose: 240.0 mg/kg/injection, schedule: Q01DX005 (ip), vehicle: saline with Tween-80): 88 % of control

NC(N)=NCCCC(N)C(=O)NCC(=O)NCC(=O)O (stereo not drawn) (H-[ξR]-Gly-Gly-OH)
T/C (dose: 50.0 mg/kg/injection, schedule: Q01DX005 (ip), vehicle: saline): 98 % of control | T/C (dose: 100.0 mg/kg/injection, schedule: Q01DX005 (ip), vehicle: saline): 96 % of control | T/C (dose: 200.0 mg/kg/injection, schedule: Q01DX005 (ip), vehicle: saline): 98 % of control

CC/C(=N\OC(=O)Nc1ccccc1)c1ccc(OC(=O)Nc2ccccc2)cc1
T/C (dose: 50.0 mg/kg/injection, schedule: Q01DX005 (ip), vehicle: saline with Tween-80): 99 % of control | T/C (dose: 100.0 mg/kg/injection, schedule: Q01DX005 (ip), vehicle: saline with Tween-80): 95 % of control | T/C (dose: 200.0 mg/kg/injection, schedule: Q01DX005 (ip), vehicle: saline with Tween-80): 104 % of control

NC(N)=NS(=O)(=O)c1ccc(NCc2c3ccccc3nc3ccccc23)cc1
T/C (dose: 3.12 mg/kg/injection, schedule: Q04DX002 (ip), vehicle: Klucel (hydroxypropylcellulose) (HPC)): 114 % of control | T/C (dose: 12.5 mg/kg/injection, schedule: Q04DX002 (ip), vehicle: Klucel (hydroxypropylcellulose) (HPC)): 165 % of control | T/C (dose: 25.0 mg/kg/injection, schedule: Q04DX002 (ip), vehicle: Klucel (hydroxypropylcellulose) (HPC)): 172 % of control | T/C (dose: 50.0 mg/kg/injection, schedule: Q04DX002 (ip), vehicle: Klucel (hydroxypropylcellulose) (HPC)): 166 % of control | T/C (dose: 50.0 mg/kg/injection, schedule: Q04DX003 (ip), vehicle: Klucel (hydroxypropylcellulose) (HPC)): 151 % of control and 156 % of control | T/C (dose: 100.0 mg/kg/injection, schedule: Q04DX002 (ip), vehicle: Klucel (hydroxypropylcellulose) (HPC)): 174 % of control | T/C (dose: 100.0 mg/kg/injection, schedule: Q04DX003 (ip), vehicle: Klucel (hydroxypropylcellulose) (HPC)): 168 % of control and 169 % of control | T/C (dose: 200.0 mg/kg/injection, schedule: Q04DX002 (ip), vehicle: Klucel (hydroxypropylcellulose) (HPC)): 151 % of control | T/C (dose: 200.0 mg/kg/injection, schedule: Q04DX003 (ip), vehicle: Klucel (hydroxypropylcellulose) (HPC)): 174 % of control and 180 % of control | T/C (dose: 400.0 mg/kg/injection, schedule: Q04DX002 (ip), vehicle: Klucel (hydroxypropylcellulose) (HPC)): 169 % of control | T/C (dose: 400.0 mg/kg/injection, schedule: Q04DX003 (ip), vehicle: Klucel (hydroxypropylcellulose) (HPC)): 155 % of control and 202 % of control and 207 % of control | T/C (dose: 800.0 mg/kg/injection, schedule: Q04DX002 (ip), vehicle: Klucel (hydroxypropylcellulose) (HPC)): 161 % of control | T/C (dose: 800.0 mg/kg/injection, schedule: Q04DX003 (ip), vehicle: Klucel (hydroxypropylcellulose) (HPC)): 162 % of control and 210 % of control and 250 % of control

CCc1nc(N)nc(N)c1-c1ccc(N2CCCCC2)c([N+](=O)[O-])c1
T/C (dose: 3.13 mg/kg/injection, schedule: Q01DX009 (ip), vehicle: distilled water + Tween-80): 104 % of control | T/C (dose: 6.25 mg/kg/injection, schedule: Q01DX009 (ip), vehicle: distilled water + Tween-80): 99 % of control | T/C (dose: 12.5 mg/kg/injection, schedule: Q01DX009 (ip), vehicle: distilled water + Tween-80): 95 % of control | T/C (dose: 25.0 mg/kg/injection, schedule: Q01DX009 (ip), vehicle: distilled water + Tween-80): 95 % of control | T/C (dose: 50.0 mg/kg/injection, schedule: Q01DX009 (ip), vehicle: distilled water + Tween-80): 99 % of control and 90 % of control and 92 % of control | T/C (dose: 100.0 mg/kg/injection, schedule: Q01DX009 (ip), vehicle: distilled water + Tween-80): 107 % of control and 86 % of control | T/C (dose: 200.0 mg/kg/injection, schedule: Q01DX009 (ip), vehicle: distilled water + Tween-80): 90 % of control

COCCCNC(=S)N/N=C/c1cc(Cl)cc(Cl)c1O
T/C (dose: 6.25 mg/kg/injection, schedule: Q01DX009 (ip), vehicle: saline with Tween-80): 92 % of control | T/C (dose: 12.5 mg/kg/injection, schedule: Q01DX009 (ip), vehicle: saline with Tween-80): 87 % of control | T/C [2]: 93 % of control

O=C1OCc2c1cc1cc3c(cc1c2-c1ccc2c(c1)OCO2)OCO3
T/C (dose: 12.5 mg/kg/injection, schedule: Q01DX009 (ip), vehicle: Klucel (hydroxypropylcellulose) (HPC)): 91 % of control | T/C (dose: 25.0 mg/kg/injection, schedule: Q01DX009 (ip), vehicle: Klucel (hydroxypropylcellulose) (HPC)): 100 % of control | T/C (dose: 50.0 mg/kg/injection, schedule: Q01DX009 (ip), vehicle: Klucel (hydroxypropylcellulose) (HPC)): 100 % of control | T/C (dose: 100.0 mg/kg/injection, schedule: Q01DX009 (ip), vehicle: Klucel (hydroxypropylcellulose) (HPC)): 98 % of control

O=C1OC(CO)CC1(O)CO (stereo not given)
T/C (dose: 60.0 mg/kg/injection, schedule: Q01DX005 (ip), vehicle: saline): 99 % of control | T/C (dose: 120.0 mg/kg/injection, schedule: Q01DX005 (ip), vehicle: saline): 105 % of control | T/C (dose: 240.0 mg/kg/injection, schedule: Q01DX005 (ip), vehicle: saline): 104 % of control

Source: PubChem BioAssay AID330 (DTP/NCI, 2004)
